The record followed here is US20260226084A1, “DUAL RAF AND TUBULIN INHIBITORS AND METHODS OF USE THEREOF” (Deciphera Pharmaceuticals, LLC, priority 2023, published 2026).

Structures are written as SMILES. Where two headings read alike, the source gives them in different places.

One experiment relates to HPAF-II cells. Nature of the experiment: HPAF-II Cell Proliferation Assay. The experiment is classed as cell-based. Conditions: Homo sapiens, HPAF-II, HPAF-II cells; Table 2; read-out: Inhibition of cell proliferation in HPAF-II (IC50 class). Here is the method:
(§1) HPAF-II cells (catalog #CRL-1997) are obtained from the American Type Culture Collect (ATCC, Manassas, VA). Briefly, cells are grown in Minimum Essential Media supplemented with 10% characterized fetal bovine serum (Invitrogen, Carlsbad, CA) and 1% Penicillin/Streptomycin/L-Glutamine at 37° C., 5% CO2, and 95% humidity. Cells are expanded until reaching 70-95% confluency at which point they are sub-cultured or harvested for assay use. A serial dilution of test compound is dispensed into a 384-well black clear bottom plate in triplicate. 750 cells are added per well in 50 μL complete growth medium in the 384-well plate. Plates are incubated for 115 to 120 hours at 37° C., 5% CO2, and 95% humidity. At the end of the incubation, 40 μL of a 440 μM solution of resazurin (Sigma, St. Louis, MO) in PBS is added to each well of the plate and plates are incubated for an additional 18 to 24 hours at 37° C., 5% CO2, and 95% humidity. Plates are read on a Synergy2 or equivalent reader (Biotek, Winooski, VT) using an excitation of 540 nm and an emission of 600 nm. Data is analyzed using Prism software (Graphpad, San Diego, CA) to calculate IC50 values.

The next experiment concerns Pa16c cells. Description: Pa16c Cell Proliferation Assay. The following applies: Table 2, read-out: Inhibition of cell proliferation in Pa16c (IC50 class). Format: cell-based. Here is the method: as §1, with “Pa16c” for “HPAF-II”, “cells” for “cells (catalog #CRL-1997)”, “Dr. Channing Der, University of North Carolina at Chapel Hill.” for “the American Type Culture Collect (ATCC, Manassas, VA).”, “Dulbecco's Modified Eagle Medium” for “Minimum Essential Media”, “67” for “115”, “72 h” for “120 hours”

Another experiment relates to MiaPaca-2 cells. Nature of the experiment: MiaPaca-2 Cell Proliferation Assay. Format: cell-based. The following applies: Table 2, read-out: Inhibition of cell proliferation in MiaPaca-2 (IC50 class). Here is the method:
Miapaca-2 cells (catalog #CRL-1420) are obtained from the American Type Culture Collect (ATTC, Manassas, VA). Briefly, cells were grown in DMVEM supplemented with 10 characterized fetal bovine serum (Invitrogen, Carlsbad, CA), 2.5% New Zealand sourced horse serum and 1 Penicillin/Streptomycin/L-Glutamine at 37° C., 5 CO2, and 95% humidity. Cells are expanded until reaching 70-95% confluency at which point they are sub-cultured or harvested for assay use. A serial dilution of test compound is dispensed into a 96-well black clear bottom plate in triplicate. Three thousand cells are added per well in 200 μL complete growth medium in the 96-well plate. Plates are incubated for 67 to 72 h at 37° C., 5% CO2, and 95% humidity. At the end of the incubation, 40 μL of a 440 μM solution of resazurin (Sigma, St. Louis, MO) in PBS is added to each well of the plate and plates are incubated for an additional 5 to 6 h at 37° C., 5% CO2, and 95% humidity. Plates are read on a Synergy2 or equivalent reader (Biotek, Winooski VT) using an excitation of 540 nm and an emission of 600 nm. Data is analyzed using Prism software (Graphpad, San Diego, CA) to calculate IC50 values.

In experiment [1] the target is T1, B-Raf kinase (SEQ ID NO: 1) (Homo sapiens, UniProt P15056).
T1 construct: GST (N); purchased Sigma
Description: Biochemical Assay for B-Raf (coupled pyruvate kinase/lactate dehydrogenase assay). The following applies: 1 mM ATP; read-out: BRAF (inhibition of biochemical activity, IC50).

The target of experiment [2] is T2, C-Raf kinase (SEQ ID NO: 2) (Homo sapiens, UniProt P04049, Y340D/Y341D).
T2 construct: C-Raf residues 306-end; Y340D, Y341D with; GST (N); purchased Sigma
Description: Biochemical Assay for C-Raf (coupled pyruvate kinase/lactate dehydrogenase assay). The following applies: 1 mM ATP; read-out: CRAF (inhibition of biochemical activity, IC50).

For a further experiment, the system named is HCT-116 cells. Nature of the experiment: HCT-116 Cell Proliferation Assay. The experiment is classed as cell-based. The following applies: Homo sapiens, HCT-116, HCT-116 cells; Table 2; read-out: Inhibition of cell proliferation in HCT-116 (IC50 class). As for the experimental part: HCT-116 cells (catalog #CCL-247) are obtained from the American Type Culture Collect (ATCC, Manassas, VA). Briefly, cells are grown in McCoy's 5A supplemented with 10% characterized fetal bovine serum (Invitrogen, Carlsbad, CA) and 1% Penicillin/Streptomycin/L-Glutamine at 37° C., 5% CO2, and 95% humidity. Cells are expanded until reaching 70-95% confluency at which point they are subcultured or harvested for assay use. A serial dilution of test compound is dispensed into a 384-well black clear bottom plate in triplicate. 375 cells are added per well in 50 μL complete growth medium in the 384-well plate. Plates are incubated for 67 to 72 hours at 37° C., 5% CO2, and 95% humidity. At the end of the incubation, 40 μL of a […] solution of resazurin (Sigma, St. Louis, MO) in PBS is added to each well of the plate and plates are incubated for an additional 4 to 5 h at 37° C., 5% CO2, and 95% humidity. Plates are read on a Synergy2 or equivalent reader (Biotek, Winooski, VT) using an excitation of 540 nm and an emission of 600 nm. Data is analyzed using Prism software (Graphpad, San Diego, CA) to calculate IC50 values.

The mark [3] stands for this setting: Homo sapiens, MIA PaCa-2, MiaPaca-2 cells.

T2 sequence (P04049 307-648 Y340D/Y341D): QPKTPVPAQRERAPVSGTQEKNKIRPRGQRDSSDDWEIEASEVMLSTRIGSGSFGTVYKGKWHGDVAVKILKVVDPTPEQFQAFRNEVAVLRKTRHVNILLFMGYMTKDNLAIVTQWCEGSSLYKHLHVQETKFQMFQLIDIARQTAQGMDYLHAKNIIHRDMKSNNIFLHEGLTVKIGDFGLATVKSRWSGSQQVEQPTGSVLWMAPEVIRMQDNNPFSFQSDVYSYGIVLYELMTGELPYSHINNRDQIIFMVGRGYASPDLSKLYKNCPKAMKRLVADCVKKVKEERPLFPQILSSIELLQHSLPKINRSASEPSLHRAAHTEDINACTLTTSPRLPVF
T1 sequence (P15056 416-766): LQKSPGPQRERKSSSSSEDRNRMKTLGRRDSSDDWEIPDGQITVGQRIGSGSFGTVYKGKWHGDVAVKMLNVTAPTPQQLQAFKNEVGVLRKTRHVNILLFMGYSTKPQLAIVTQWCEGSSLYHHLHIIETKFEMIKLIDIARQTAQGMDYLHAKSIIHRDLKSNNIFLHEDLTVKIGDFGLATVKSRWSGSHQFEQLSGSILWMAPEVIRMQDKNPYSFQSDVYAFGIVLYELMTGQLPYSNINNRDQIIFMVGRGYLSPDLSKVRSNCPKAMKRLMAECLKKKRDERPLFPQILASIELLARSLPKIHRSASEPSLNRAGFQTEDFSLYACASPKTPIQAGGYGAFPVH

For the molecule `Cc1ccc(NC(=O)c2ccc(C(C)(F)F)nc2)cc1-c1ccnc(-c2ccnc(NC(=O)C3CC3)c2)c1` [Example 80], the IC50 in the experiment with HPAF-II cells is 100 to 500 nM; in the experiment on Pa16c cells, 100 to 500 nM; in the experiment with MiaPaca-2 cells (setting [3]), 100 to 500 nM; in experiment [1], under 100 nM; in experiment [2] it was under 100 nM; in the experiment with HCT-116 cells it was 100 to 500 nM.
With `Cc1ccc(NC(=O)c2cc(C(C)C)cnn2)cc1-c1cncc(-c2cc(NC(=O)C3CC3)ncn2)c1` [Example 64], the IC50 in the experiment with HPAF-II cells was 100 to 500 nM; in the experiment with Pa16c cells, 100 to 500 nM; with MiaPaca-2 cells (setting [3]), 500 to 1000 nM; in experiment [1], under 100 nM; in experiment [2] it was under 100 nM; in the experiment with HCT-116 cells, 100 to 500 nM.
Consider `CC(=O)Nc1cc(-c2cc(-c3cc(NC(=O)c4ccc(C(F)(F)F)nc4)ccc3C)cn(C)c2=O)ccn1` [Example 28], for which the IC50 with MiaPaca-2 cells (setting [3]) is 1000 to 10000 nM; in experiment [1] it was 100 to 500 nM; in experiment [2], under 100 nM.
On to `CC(=O)Nc1cc(-c2cc(-c3cc(NC(=O)c4ccc(C(F)(F)F)nc4)ccc3C)cn(CCO)c2=O)ccn1` [Example 29], for which the IC50 (in the experiment with MiaPaca-2 cells (setting [3]); in experiment [1]; in experiment [2]) was 1000 to 10000 nM each time.
On to `COC(=O)Nc1cc(-c2cc(-c3cc(NC(=O)c4ccc(C(F)(F)F)nc4)cnc3C)ccn2)ccn1` [Example 31], for which the values for the IC50 (with MiaPaca-2 cells (setting [3]); in experiment [1]; in experiment [2]) were 1000 to 10000 nM, 1000 to 10000 nM and 100 to 500 nM, respectively.
As to `CC(=O)Nc1cc(-c2cccc(-c3cc(NC(=O)c4ccc(C(F)F)nc4)ccc3C)n2)ccn1` [Example 85], the figures for the IC50 (in the experiment with MiaPaca-2 cells (setting [3]); in experiment [1]; in experiment [2]) were 500 to 1000 nM, 100 to 500 nM and under 100 nM, respectively.
On to `COC(=O)Nc1cc(-c2cc(-c3cc(NC(=O)c4ccc(C(F)(F)F)nc4)ccc3C)cc(OCCO)n2)ccn1` [Example 77], for which the results for the IC50 (with MiaPaca-2 cells (MiaPaca-2 cells); in experiment [1]; in experiment [2]) were 1000 to 10000 nM, under 100 nM and under 100 nM, respectively.
Regarding `COC(=O)Nc1cc(-c2cccc(-c3cc(NC(=O)c4ccc(C(F)(F)F)nc4)cnc3C)c2)ccn1` [Example 32], the IC50 in the experiment on MiaPaca-2 cells (setting [3]) is 500 to 1000 nM; in experiment [1], 100 to 500 nM; in experiment [2], under 100 nM.
On to `Cc1ccc(NC(=O)c2cc(C(F)(F)F)cnn2)cc1-c1cc(N[C@H](C)CO)nc(-c2c[nH]nc2N)c1` [Example 153], for which the IC50 was 1000 to 10000 nM in the experiment with HPAF-II cells; 100 to 500 nM in the experiment on MiaPaca-2 cells (setting [3]); 100 to 500 nM in experiment [1]; under 100 nM in experiment [2]; 100 to 500 nM with HCT-116 cells.
As for `Cc1ccc(NC(=O)c2ccc(C(F)(F)F)nc2)cc1-c1cncc(-c2cc(N)ncn2)c1` [Example 73], the IC50 with MiaPaca-2 cells (setting [3]) was in the range of 1000 to 10000 nM; in experiment [1] it was 500 to 1000 nM; in experiment [2] it was 500 to 1000 nM.
Consider `CC(=O)Nc1cc(-c2nccc(-c3cc(NC(=O)c4ccc(C(F)F)nc4)ccc3C)n2)ccn1` [Example 14], for which the values for the IC50 (in the experiment with MiaPaca-2 cells (setting [3]); in experiment [1]; in experiment [2]) were 100 to 500 nM, 100 to 500 nM and under 100 nM, respectively.
On to `COC(=O)Nc1cc(-c2nccc(-c3cc(NC(=O)c4ccc(C(F)(F)F)nc4)ccc3C)n2)ccn1` [Example 30], for which the IC50 in the experiment with MiaPaca-2 cells (MiaPaca-2 cells) was 1000 to 10000 nM; in experiment [1], 1000 to 10000 nM; in experiment [2], under 100 nM.
For the molecule `COC(=O)Nc1cc(-c2cc(-c3cc(NC(=O)c4ccc(C(F)(F)F)nc4)c(F)cc3C)nc(C)n2)ccn1` [Example 21], the IC50 in the experiment with MiaPaca-2 cells (setting [3]) is under 100 nM; in experiment [1] it was 1000 to 10000 nM; in experiment [2], 500 to 1000 nM.
For the molecule `COCC(=O)Nc1cc(-c2cncc(-c3cc(NC(=O)c4ccc(C(F)F)nc4)ccc3C)n2)ccn1` [Example 89], the IC50 in the experiment with MiaPaca-2 cells (setting [3]) is 1000 to 10000 nM; in experiment [1], 1000 to 10000 nM; in experiment [2], 100 to 500 nM; in the experiment with HCT-116 cells, 1000 to 10000 nM.
`Cc1ccc(NC(=O)c2ccc(C(F)F)nc2)cc1-c1ccnc(-c2ccnc(NC(=O)C3CC3)c2)c1` [Example 25]: the IC50 in the experiment on MiaPaca-2 cells (setting [3]) was 500 to 1000 nM; in experiment [1] it was under 100 nM; in experiment [2], under 100 nM; in the experiment with HCT-116 cells it was 100 to 500 nM.
As to `COC(=O)Nc1cc(-c2cncc(-c3cc(NC(=O)c4ccc(C(F)(F)F)nc4)c(F)cc3C)c2)ccn1` [Example 3, methyl (5-(4-fluoro-2-methyl-5-(6-(trifluoromethyl)nicotinamido)phenyl)-[3,4′-bipyridin]-2′-yl)carbamate], the IC50 was under 100 nM in the experiment with MiaPaca-2 cells (setting [3]), 100 to 500 nM in experiment [1], under 100 nM in experiment [2] and under 100 nM in the experiment on HCT-116 cells.
Turning to `Cc1ccc(NC(=O)c2cc(C#N)cnn2)cc1-c1cc(N[C@H](C)CO)nc(-c2cn[nH]c2)c1` [Example 152], the IC50 is 500 to 1000 nM with HPAF-II cells; under 100 nM in the experiment with MiaPaca-2 cells (setting [3]); 100 to 500 nM in experiment [1]; 100 to 500 nM in experiment [2]; 100 to 500 nM in the experiment with HCT-116 cells.
Regarding `COC(=O)Nc1cc(-c2cccc(-c3cc(NC(=O)c4ccc(C(F)(F)F)nc4)cnc3C)c2)ncn1` [Example 33], the values for the IC50 (with MiaPaca-2 cells (setting [3]); in experiment [1]; in experiment [2]) were 1000 to 10000 nM, 500 to 1000 nM and under 100 nM, respectively.
On the same counts, the results for `COC(=O)Nc1cc(-c2cncc(-c3cc(NC(=O)c4ccc(C(F)(F)F)nc4)ccc3C)c2)ccn1` [Example 74] are 100 to 500 nM, 100 to 500 nM and under 100 nM.
Regarding `Cc1ccc(NC(=O)c2cc(C(F)(F)F)cnn2)cc1-c1ccnc(-c2cnsc2)c1` [Example 132], the IC50 with HPAF-II cells, with Pa16c cells, with MiaPaca-2 cells (setting [3]) and in the experiment on HCT-116 cells was 100 to 500 nM each time.
Consider `CC(=O)Nc1cc(-c2cc(-c3cc(NC(=O)c4ccc(C(F)(F)F)nc4)ccc3C)nn(C)c2=O)ccn1` [Example 12], for which the IC50 (with MiaPaca-2 cells (setting [3]); in experiment [1]; in experiment [2]) was 1000 to 10000 nM throughout.
